Values after ≈ are worked out from the molar mass of the structure shown.
Assays:
[1] = tested on: C. neoformans var grubii, KN99; assay: Inhibition of C. neoformans growth, limiting dilution assay (MIC); type: cell-based; settings: for MIC80 / MIC: Cryptococcus neoformans; for MIC80: KN99α, minimal concentration inhibiting 80% of growth relative to vehicle; for inhibition of C. neoformans growth: YNB-02+1% DMSO at 35° C., at 15 and 60 μM
Description: Strains and media. All inhibition assays were performed with C. neoformans var grubii, KN99 (serotype A, MATα; kindly provided by Jennifer Lodge). Two clinical strains of C. neoformans var grubii, serotype A, were kindly provided by Tamara Doering and Andre Spec. […] Each assay was done in triplicate and all values are the average of two or more independent assays. The data are presented as the average cell density as a percent of DMSO-only treated cells. […] However, these conditions are unlike conditions encountered by C. neoformans in mammalian infections, where nutrients are limited, and the pH and temperature are higher than in YPD media. The cryptococcal stress response to low glucose and high pH and temperature may alter its susceptibility to the inhibitors. It is also possible that the enzymes targeted by the inhibitors may render the cell temperature sensitive when inhibited. To better mimic growth in mammals, growth was tested without shaking in nutrient-limited media at 35° C. […] However, as the nutrient-limited media and higher temperature is more similar to mammalian cell growth conditions, these conditions were used for all further assays. […] All values were measured at least two times in independent experiments and the average MIC is reported.

[2] = Cytotoxicity in hepatoma cells (MTS); settings: human, HepDES19 cells, CC50, HepDES19 cells, 72 hours, MTS
Description: HepDES19 cells (1.0×10^4 cells per well) were seeded in 96-well plates and incubated in DMEM with 10% fetal bovine serum (FBS) plus 1% penicillin and streptomycin, 1% nonessential amino acids, and 1% glutamine. The compounds were diluted in the medium at concentrations ranging from 0.78 to 100 μM plus 1% DMSO and added to the cells 48 hours after plating, with each concentration tested in triplicate. Cells were incubated with the compound for 72 hours and cytotoxicity was measured using a mitochondrial metabolic assay with MTS (Promega). The data were transformed to log[inhibitor] and fit to a 4-variable slope curve using GraphPad Prism (v6, www.graphpad.com).
Three days later, the MTS reagent was added for 90 minutes prior to terminating the incubation period and reading the OD480.

KN99α cells [3] = assay: Growth inhibition in YPD+1% DMSO at 25° C.; type: cell-based, C. neoformans; settings: at 60 μM
Description: FIGS. 5A & 5B. Inhibition of KN99α cells by β-thujaplicinol and β-thujaplicin under conditions (FIG. 5A) YPD at 25° C. and (FIG. 5B) YNB-02 at 35° C.
An assay was developed that could cheaply and reproducibly measure inhibition of C. neoformans growth using a 96-well format. C. neoformans growth was initially tested in YPD versus YPD+1% DMSO at 25° C. with shaking for 24 and 48 hours. […] However, these conditions are unlike conditions encountered by C. neoformans in mammalian infections, where nutrients are limited, and the pH and temperature are higher than in YPD media. The cryptococcal stress response to low glucose and high pH and temperature may alter its susceptibility to the inhibitors. It is also possible that the enzymes targeted by the inhibitors may render the cell temperature sensitive when inhibited. To better mimic growth in mammals, growth was tested without shaking in nutrient-limited media at 35° C. First, the cell culture media, RPMI-1640+0.4% glucose+1% DMSO (Sigma) as defined by National Committee for Clinical Laboratory Standards (NCCLS) was tested for anti-fungal susceptibility testing. However, the cells grew very poorly under these conditions. […] (FIG. 5A). However, as the nutrient-limited media and higher temperature is more similar to mammalian cell growth conditions, these conditions were used for all further assays.

KN99α cells [4] = assay: Inhibition under capsule-inducing conditions (MIC); type: cell-based; settings: Cryptococcus neoformans; YNB-02+1% DMSO, 37° C. with 5% CO2, 48 hours
Description: KN99α cells were grown overnight in YPD at 30° C. with shaking. […] Capsule was visualized using bright-field microscopy as a halo surrounding the yeast cell through India ink exclusion. The screening was conducted in the nutrient-limited media YNB-02 at 35° C. to mimic some aspects of the growth conditions in humans. […] The untreated cells grown in YNB-02 were able to elaborate the capsule (FIG. 7D) compared to cells grown overnight in YPD at 30° C. (FIG. 7C).

[5] = tested on: C. neoformans var grubii, KN99; assay: Synergy (checkerboard) assay with Fluconazole or Amphotericin B; type: cell-based; settings: in combination with either FLC or AMB
Description: Each assay was performed in triplicate and all values are the average of two or more independent assays. The fractional inhibitory concentration index (FICI) model is expressed as ΣFIC=FICA+FICB=MICA′/MICA+MICB′/MICB, where MICA, and MICB are the MIC values of agents A and B used alone and MICA′ and MICB′ are the MICs of agents A and B used in combination.

[6] = tested on: clinical strains of C. neoformans var grubii, serotype A; assay: MIC in two independent clinical strains; type: cell-based; settings: Cryptococcus neoformans
Description: Strains and media. All inhibition assays were performed with C. neoformans var grubii, KN99 (serotype A, MATα; kindly provided by Jennifer Lodge). Two clinical strains of C. neoformans var grubii, serotype A, were kindly provided by Tamara Doering and Andre Spec. […] Cells were incubated without shaking for 48 hours at 35° C. and cell density was measured at […]. […] Each assay was done in triplicate and all values are the average of two or more independent assays. The data are presented as the average cell density as a percent of DMSO-only treated cells. MICs are reported as the minimal concentration needed to inhibit 80% of C. neoformans growth relative to vehicle-treated controls. Another thirty-seven of the molecules are αHTs (FIG. 4), which have a third contiguous oxygen atom on the troponoid ring.

C. neoformans = assay: Fungicidal assay; type: cell-based; settings: 48 hours exposure at 2×, 4× and 8× the MIC, spotted, 30° C. for 2 days
Description: To test for fungicidal activity, aliquots of cells were removed after 48 hours of growth in the presence of test compounds at 2×, 4×, and 8× the respective MICs and spotted them on YPD plates. The plates were incubated at 30° C. for 2 days and checked for growth. Growth of cells treated with test compounds was compared to FLC-treated cells, which is known to be fungistatic and to AMB-treated cells, which is known to be fungicidal (Klepser, et al., 1998; Mesa-Arango, et al., 2014).
compounds #54 and #284 were evaluated for fungicidal versus fungistatic activity. This analysis was done in a qualitative assay in parallel with FLC, which is known to be fungistatic (Klepser, et al., 1998) and AMB, which is known to be fungicidal (Mesa-Arango, et al., 2014). The MICs were 3 μM (0.9 μg/mL), 1.5 μM (1.4 μg/mL), 12 μM and 0.31 μM for FLC, AMB, #54 and #284 respectively. (FIGS. 8A & 8B).

KN99α cells [7] = assay: MIC assays of hydrolysis products of #284 and p-benzoic acid; type: cell-based, C. neoformans; settings: dilution series 0.19-50 μM, 48 hours at 35° C.
Description: FIG. 6. […] Values are mean±standard deviation from three replicates.
The solution was mixed by vortexing until a prominent color change (pale yellow to dark orange) was apparent. This reaction was performed in triplicate. One aliquot of the reaction mixture was stored at room temperature, one at 35° C., and one at 40° C. After 24 hours, the reaction mixtures were neutralized with HCl.
This would release a tropothione, possibly in multiple oxidation states, as well as p-benzoic acid, any of which could potentially act as inhibitors.

[8] = YNB-02+1% DMSO, 35° C., 48 hours
[9] = 48 h, measured alone, 80% of cells inhibited relative to vehicle, run with synergy and fungicidal assays

Molecule	MIC80 [1, 8]	inhibition of C. neoformans growth [1]	CC50 at 72 h [2]	inhibition of C. neoformans growth (KN99α cells [3])	MIC [1, 9]	cell growth on YPD plates after drug exposure (C. neoformans)	other results
CC(C)c1cccc(=O)c(O)c1 [Compound 47, β-thujaplicin]	21 µM (≈ 3.45 µg/mL)	some inhibition	66.5 µM	almost completely inhibited			
O=c1ccccc(Br)c1O [Compound 54, 3-bromotropolone]	7 µM (≈ 1.41 µg/mL)		95 µM		12 µM		MIC (KN99α cells [4]): 6 to 12 µM (≈ 1.21 to 2.41 µg/mL); FIC index [5]: 2; FIC value [5]: 1; MIC [6]: 6 to 12 µM (≈ 1.21 to 2.41 µg/mL)
CC(C)c1ccc(O)c(=O)c(O)c1 [Compound 46, β-thujaplicinol]	8 µM (≈ 1.44 µg/mL)	some inhibition	23 µM	almost completely inhibited			MIC [1, 8]: ≤ 15 µM
OC(Cn1cncn1)(Cn1cncn1)c1ccc(F)cc1F [FLC, Fluconazole, reference compound]					3 µM	Significant cell growth	MIC ([1]; measured alone, 80% of cells inhibited relative to vehicle, run with synergy and fungicidal assays): 0.9 µg/mL
C[C@@H]1[C@H](O)[C@@H](C)/C=C/C=C/C=C/C=C/C=C/C=C/C=C/[C@H](O[C@@H]2O[C@H](C)[C@@H](O)[C@H](N)[C@@H]2O)C[C@@H]2O[C@](O)(C[C@@H](O)C[C@@H](O)[C@H](O)CC[C@@H](O)C[C@@H](O)CC(=O)O[C@H]1C)C[C@H](O)[C@H]2C(=O)O [AMB, Amphotericin B]						no cell growth	
p-benzoic acid							MIC (KN99α cells [7]): > 50 µM

Reference: patent publication US10980754B2, “Anti-fungal compounds” (SAINT LOUIS UNIVERSITY, priority 2016, dated 2021)
